This is an account of results in patent US20110059174A1, “PKCdelta REGULATES NEUROINFLAMMATORY EVENTS” (IOWA STATE UNIVERSITY RESEARCH FOUNDATION, INC., priority 2009, published 2011).

One data set concerns BV-2 cells. Nature of the data set: TNFα release from BV-2 cells exposed to MMP-3 or MPP (Luminex). Format: cell-based. As to the method: FIG. 6. MMP3-induces TNFα release in BV2 cells. […] After 24 h, the amount of TNFa released into the extracellular medium were determined in Luminex assays (see methods for details). n=6 ** p<0.01 compared to control.
(§1) Microglial cells are the primary immune cells in the CNS and are the major source of TNFα during neuroinflammation. Therefore, in this section, we examined the possible mechanisms that could regulate TNFα release during microglial activation. In particular, we examined whether PKCδ plays any role in the production and release of cytokines. For these studies, we used LPS as a microglial activator on BV2 cells, a widely used microglial cell line. BV-2 cells were exposed to LPS (1 μg/ml) in the presence or absence of PKCδ inhibitor rottlerin (1-3 μM). […] After 16 hr, cell-free supernatants were collected and TNFα levels were quantified using a multiplex bead-based luminex® assay system, as described in the methods.
Matrix metalloproteinases (MMPs) are a family of highly homologous protein-degrading zinc dependent endopeptidases. […] Therefore, we examined if MMP-3 could trigger TNFα release in BV-2 cells. […] Following 24 hr of MMP-3 treatment, supernatants were collected from extracellular medium and TNFα levels were determined using a Luminex immunoassay. […]

The conditions of data set [1]: dose range 1-3 μM; cited from earlier work.
The next data set has as its system primary mouse microglia. Description: LPS-induced cytokine release from primary mouse microglia (Luminex immunoassay). The class given is cell-based. How it is done:
FIG. 8. Effect of PKCδ inhibitor rottlerin on LPS-induced TNFα release from primary mouse microglia. Primary microglia were treated with 100 ng/ml LPS for 24 hr in the presence of PKCδ inhibitor rottlerin (1 μM and 3 μM). TNFα levels in the culture medium were quantified using a multiplex bead-based luminex® immunoassay. *** p<0.001 compared to controls; […] ### p<0.001 compared to LPS treatment; N=5.
FIG. 10. PKCδ inhibitor rottlerin suppresses pro-inflammatory cytokine release in primary mouse microglia. Primary microglia were isolated by differential adherence from post-natal mixed-glial cultures and purity verified to be more than 95% by immunocytochemistry. Primary microglia were treated with LPS (100 ng/ml) for 24 hrs or pre-treated with the PKCδ inhibitor rottlerin (1 μM) and then treated with LPS. After treatment, supernatants were collected and proinflammatory cytokine levels were assayed using a multiplexed luminex assay.
To extend the results obtained with the BV2 microglial cell line to primary microglia, we performed some preliminary studies in primary microglia isolated from post-natal day 2 (PND-2) C57 black mice as described previously (Floden et al. 2006). Briefly, the brain tissues from PND-2 mice were gently triturated in ice-cold Ca^2+ and Mg^2+-free HBSS. The cells were spun down and cultured using DMEM/F-12 medium containing 10% heat-inactivated FBS, antibiotics and essential nutrients, as described previously (Liu et al. 2002). After 12-14 days, microglia were harvested by the differential shaking method (350 rpm for 4 hr) and grown on poly-D lysine coated 24-well plates. Primary microglia were then fixed with 4% paraformaldehyde and processed for immunohistochemical staining using CD 11b (microglial marker) monoclonal antibody followed by Alexa 568-conjugated secondary antibody (red). Nuclei were stained with TO-PRO-3 dye (blue). The cells were viewed using a Nikon TE2000 microscope, and images were captured by SPOT digital camera. […] Additionally, we have established a microglia isolation procedure using magnetic labeled CD11b (MACs CD11b+) microbeads followed by AutoMACS cell sorting, which also yielded over 95% pure microglia.
We extended this study to primary microglia. CD11b+ primary microglia cultures were prepared, as described in the previous section. The primary microglial cultures were treated with 100 ng/ml LPS for 24 hr in the presence of various doses of the PKCδ inhibitor rottlerin (1 μM and 3 μM). TNFα levels in the culture medium were quantified using a multiplex bead-based Luminex® immunoassay. […] 3 μM rottlerin reduced LPS-induced TNFα release by 75%. Consistent with the BV2 cell line data presented in the original proposal, the new results provide further evidence that PKCδ can regulate TNFα release in primary microglia during neuroinflammation.
FIG. 10. PKCδ inhibitor rottlerin suppresses pro-inflammatory cytokine release in primary mouse microglia. Primary Microglia were isolated by differential adherence from post-natal mixed-glial cultures and purity verified to be more than 95% by immunocytochemistry. Primary microglia were treated with LPS (100 ng/ml) for 24 hrs or pre-treated with the PKCδ inhibitor rottlerin (1 μM) and then treated with LPS. After treatment, supernatants were collected and proinflammatory cytokine levels were assayed using a multiplexed luminex assay.

The next data set has as its system PKCδ. The following applies: dose range 1-3 μM; cited from earlier work.
Data set [2] concerns nigral dopaminergic neurons. The following applies: MPTP-induced animal model of Parkinson's disease; cited from earlier work.
Another data set deals with BV-2 microglia. Description: LPS induced cytokine release in BV-2 microglia (Luminex immunoassay). Format: cell-based. The following applies: BV-2 cells. As to the method: FIG. 1. […] BV-2 microglia were exposed to 1 μg/ml LPS with and without rottlerin (1 to 3 μM) for 16 hrs and cell free supernatants were collected.
BV-2 microglia were transfected with 20 nM PKCδ siRNA and non-specific siRNA. 24 hr later transfected cells were treated with LPS (1 μg/ml) for 16 hrs and cell free supernatants were collected. Specificity of PKCδ suppression was assessed by western blotting.
as §1
In this experiment, we examined whether PKCδ-siRNA mediated knockdown of PKCδ, would suppress LPS-induced TNFα release in BV-2 cells.

Another data set deals with PKCδ promoter. Nature of the data set: PKCδ promoter luciferase reporter assay in BV-2 cells. The class given is cell-based, mouse. An excerpt: FIG. 4. PKCδ promoter structure and site-directed mutagenesis of NFkB binding sites. (A) The ˜2 kb fragment of mouse PKCδ promoter region (relative to the transcription start site) was cloned using genomic DNA prepared from MN9D cells by the fusion PCR technique. PKCδ promoter fragment was cloned into promoter-less pGL3-basic vector with a luciferase reporter gene (Luc). (B). Site-specific mutagenesis of two NFkB sites present in the PKCδ promoter region.
FIG. 5. Mutation of NFkB sites block TNFa induced PKCδ promoter activity. Briefly, BV2 cells, were transfected with promoter constructs coding for native or NFkB mutated PKCδ promoter (see FIG. 10). 12 h after transfection, cells were exposed to 30 ng/ml TNF with or without etanercept (ETA). 24 h later, cell lsyates were subject to luciferase assay.
Since PKCδ upregulation was observed during neuroinflammation (FIG. 4A), we sought to determine mechanisms that regulate PKCδ expression via transcriptional activation. We first cloned the full-length mouse PKCδ promoter (2 Kb) from genomic DNA using the fusion PCR technique (FIG. 5A). The resulting PKCδ promoter 2 Kb fragment was cloned into the promoter-less pGL3-luciferase reporter vector. Binding of the transcription factors to the PKCδ promoter region would result in the expression of luciferase enzyme. […]
(In general: In a reporter assay the amount or activity of a reporter protein is the signal.)

Setting [3] is: LPS-stimulated primary mouse microglia.
[4] abbreviates: LPS and rottlerin treated samples, data not shown.

As to `C[n+]1ccc(-c2ccccc2)cc1` [MPP, 1-methyl-4-phenylpyridinium], in the data set on BV-2 cells (24 hr exposure to 300 μM, data not shown), the “TNFα release from BV-2 cells” value was “failed to release TNFα”.

For the compound `CC(=O)c1c(O)c(C)c(O)c(Cc2c(O)c3c(c(C(=O)/C=C/c4ccccc4)c2O)OC(C)(C)C=C3)c1O` [rottlerin, 3-[(8-Cinnamoyl-5,7-dihydroxy-2,2-dimethyl-2H-1-benzopyran-6-yl)methyl]-2′,4′,6′-trihydroxy-5-methylaceophenone], in data set [1], the toxicity entry is given as “does not cause any toxicity”. In the data set with primary mouse microglia (setting [3]), the “release of IL-6” value is “decrease” and the “release of IL-12” value is on record as “decrease”. In addition, the “reduction of LPS-induced TNFα release” value in the data set with primary mouse microglia (primary microglia, 100 ng/ml LPS 24 hr, 3 μM rottlerin) stood at 75%. Moreover, the “LPS-induced TNFα levels” value with primary mouse microglia (primary microglia, 100 ng/ml LPS 24 hr, rottlerin 1 μM and 3 μM, dose dependent) was “significantly suppressed”. The pro-inflammatory cytokine release entry with primary mouse microglia (primary microglia, pre-treated with rottlerin 1 μM, LPS 100 ng/ml 24 hrs) is reported as “suppresses”. Also, the PKCδ inhibition entry in the data set on PKCδ is on record as “effectively inhibits PKCδ”. The “nigral dopaminergic neuronal death” value in data set [2] was “protects”. In addition, the “LPS-induced TNFα release” value with BV-2 microglia (LPS 1 μg/ml, rottlerin 1-3 μM, 16 hr) is on record as “dose-dependently blocked”. Moreover, in the data set on BV-2 microglia (setting [4]), the “LPS-induced IL-6 levels” value is recorded as “no effect” and the “LPS-induced IL-12 levels” value is “no effect”.

Turning to Etanercept, the “TNFα-induced PKCδ promoter activity” value in the data set with PKCδ promoter (BV-2 cells, 30 ng/ml TNF with etanercept, 24 h, luciferase) was “blocked”.

Turning to ProMMP3: inactive proMMP-3, the “levels of TNFα compared to control” value in the data set with BV-2 cells (BV-2 cells, 400 ng/ml, 24 hr) is listed as “did not induce any significant levels”.

Turning to TNFα, the PKCδ promoter activity entry in the data set on PKCδ promoter (BV-2 cells expressing 148 bp minimal PKCδ promoter construct, 30 ng/ml TNF) is “significant increase”.
